Results as given in patent publication US10532082B2, “SOCS1-derived peptide for use in chronic complications of diabetes” (Fundació Hospital Universitari Vall d'Hebron-Institut de …, priority 2014, dated 2020).
Where no end group is shown, it is not given here. [ ]: non-standard residue; d: D form. lysine‑palmitate = lysine-palmitate bound at the N-terminal end; pY = N[C@@H](Cc1ccc(OP(=O)(O)O)cc1)C(=O)O

What was measured:
[1] = tested on: STAT1; test: STAT1 activation in cytokine-stimulated VSMC; format: cell-based, mouse; conditions: IFNγ and IL-6 stimulation, immunofluorescence images
[2] = tested on: streptozotocin diabetic apoE-deficient mice; test: Metabolic and renal data in mice with type 1 diabetes, intraperitoneal treatment; format: in vivo; conditions: STZ apoE mice, 65 μg/day i.p. every 2 days, 8 weeks
Procedure: (§1) Apolipoprotein E (apoE)-deficient male mice of 8 weeks of age were made diabetic through streptozotocin injection (125 mg/kg weight in 10 mM citrate, pH 4.5, two consecutive days). After 2 weeks, animals with glycemia greater than 350 mg/dL were randomly distributed in two groups (n=9 animals per group): treated animals (miS1 peptide: 65 μg/day, 200 μL, intraperitoneally, every 2 days for 8 weeks) and controls (vehicle). The weight and glycemia (colorimetric assay) were controlled throughout the study period.
At the end of the study, the anesthetized animals were perfused with saline and sacrificed, processing the tissues immediately. In renal cortex (paraffin sections, 5 μm) the glomerular and tubulointerstitial morphology was studied by means of PAS and Masson trichrome staining and the lesions were evaluated in a double-blind and semi-quantitative manner in a scale of 0-3. Renal fibrosis was determined by means of Picro-Sirius red staining and the infiltrating inflammatory cells (F4/80+ macrophages and CD3+ T-lymphocytes) by immunohistochemistry. In the aorta, the root/arch zone (serial cryosections of 8 μm from the valves to an extension of 1000 μm) was stained with Oil-red-O/hematoxylin and the area of the atherosclerotic lesion was quantified (Metamorph program). Plaque stability was assessed by collagen fiber staining with Picro-Sirius red and α-actin immunofluorescence. The inflammatory component was determined by means of immunohistochemistry for monocyte/macrophages (Moma2). The Image Pro-Plus program was used for quantifying positive stainings. The biochemical parameters in serum (glycated hemoglobin, cholesterol and creatinine) and in urine (albumin and creatinine) were determined by means of conventional commercial kits.

[3] = tested on: diabetic mice (db/db); test: Retinal glutamate metabolism (GLAST immunofluorescence, glutamate by UPLC); format: in vivo; conditions: eye drops 15 days
Procedure: (§2) 8-week old diabetic mice (db/db) received the miS1 peptide in the form of eye drops (5 μL drops in each eye; 10 mg/mL; twice a day for 15 days; n=7 mice). Diabetic mice treated with the non-functional peptide Mut (n=7), treated with vehicle and non-diabetic mice (db/+) were used as controls. The eye drops were directly administered on the upper surface of the cornea of each eye using a micropipette. The weight and glycemia (colorimetric assay) were controlled throughout the study period. On day 15, the drop with the miS1 peptide or vehicle was administered about two hours before autopsy. […]
The glutamate metabolism was evaluated in order to investigate the mechanisms through which the miS1 peptide produces neuroprotection. The glutamate concentration was determined by means of ultra-high performance liquid chromatography (UPLC) (Acquity-UPLC, Waters) MassTrak amino acid system). The GLAST (Glutamate/Aspartate transporter) was evaluated by means of immunofluorescence.
The paraffin sections were deparaffinized in xylene and rehydrated in a gradual series of ethanol. […] The GLAST immunofluorescence was quantified by means of laser confocal microscopy (Olympus FluoView™ FV1000 confocal microscope, Hamburg, Germany) using the ImageJ software.

[4] = tested on: RAW264.7 macrophages; test: Cytokine-induced CCL2 production in macrophages (ELISA); format: cell-based, murine; conditions: pre-incubation with peptide, IFNγ and IL-6
Procedure: RAW264.7 macrophages and vascular smooth muscle cells (VSMC) cultured in a medium with 10% fetal bovine serum were used. The cells were synchronized (24 hours without serum), pre-incubated for 90 minutes with different peptide concentrations (miS1 or the control thereof, 50-150 μg/mL) and stimulated with cytokines (IFNγ […]). STAT activation was analyzed by means of Western blot for phosphorylated STAT1/STAT3 isoforms. JAK/STAT pathway-dependent chemokine (CCL2) expression was determined by means of ELISA. Cell viability was analyzed by MTT colorimetric assay and macrophage migration was analyzed by chemotaxis assay.

[5] = tested on: STAT1; test: Renal phosphorylated STAT1 immunodetection in diabetic mice; format: in vivo; conditions: STZ apoE mice, i.p. 8 weeks; kidney sections, vs vehicle
Procedure: as §1

[6] = tested on: diabetic mice (db/db); test: Electroretinogram (ERG) recordings, topical eye drops; format: in vivo; conditions: eye drops 15 days
Procedure: as §2
Electroretinogram (ERG) recordings were performed in darkness-adapted anesthetized mice (12 hours overnight). Focal electroretinogram (Ferg) recordings were measured using a Micron III Focal ERG system (Phoenix Research Labs, Pleasanton, Calif.). […] The ERG responses of both eyes were recorded in response to 20 ms white light stimuli. […] The ERG signals were amplified, the filtered band was between 0.5 and 1000 Hz, and was analyzed with LabScribe-2 software (BioSeb, Vitrolles, France) in order to calculate the a-wave and b-wave amplitude and implicit time, as recommended by the International Society of Clinical Electrophysiology of Vision (ISCEV) (Marmor et al Doc Ophtalmol 108: 107 a 144). […]

miS1: SEQ ID NO 1 DTHFRTFRSHSDYRRI, kinase inhibitory region of murine SOCS1, bound to lysine-palmitate at the N-terminal end, tyrosine phosphorylated ({lysine‑palmitate}-DTHFRTFRSHSD[pY]RRI)
STAT1 activation [1]: prevented | weight loss caused by chronic diabetes [2]: less pronounced | ALT ([2]; end of study): 97 ± 17 U/L | AST ([2]; end of study): 176 ± 20 U/L | Blood glucose ([2]; end of study): 549 ± 29 mg/dL | GHbA1c ([2]; end of study): 503 ± 76 µg/mL | HDL cholesterol ([2]; end of study): 11 ± 1 mg/dL | LDL cholesterol ([2]; end of study): 597 ± 61 mg/dL | Total cholesterol ([2]; end of study): 611 ± 59 mg/dL | Triglycerides ([2]; end of study): 89 ± 23 mg/dL | Weight ([2]; end of study): 21.9 ± 0.6 g | Urine albumin-creatinine ratio ([2]; p < 0.01 vs control): 16.2 ± 61.1 µg/µmol | Serum creatinine ([2]; p < 0.02 vs control): 0.24 ± 0.04 mg/dL | Kidney-body mass ratio ([2]; p < 0.05 vs control): 16.4 ± 1.3 mg/g | decrease in albumin levels (renal function) ([2]; vs vehicle): 28% | intraretinal glutamate levels ([3]; UPLC): reduced but without reaching statistical significance | GLAST content in retina ([3]; immunofluorescence): downregulation was prevented | reduction of cytokine-induced CCL2 production [4]: 30-40% | renal STAT1 activation [5]: reduction | ERG a-wave and b-wave implicit time ([6]; diabetes-induced increase): declines | ERG a-wave and b-wave amplitude ([6]; diabetes-induced reduction): declines the reduction
